The values that follow come from ChEMBL document CHEMBL1806398, “Benzothiazole-based N-(phenylsulfonyl)amides as a novel family of PPARα antagonists” (Bioorg Med Chem Lett, 2011).

Structures are written as SMILES.

As usually defined, the EC50 is the concentration needed to bring the measured effect to its halfway point. Higher therefore signals a need for much substance. The IC50 is the concentration that gives 50% inhibition.

Assay [1] deals with T1, Peroxisome proliferator-activated receptor alpha (Homo sapiens) (UniProt Q07869).
T1 sequence (whole entry): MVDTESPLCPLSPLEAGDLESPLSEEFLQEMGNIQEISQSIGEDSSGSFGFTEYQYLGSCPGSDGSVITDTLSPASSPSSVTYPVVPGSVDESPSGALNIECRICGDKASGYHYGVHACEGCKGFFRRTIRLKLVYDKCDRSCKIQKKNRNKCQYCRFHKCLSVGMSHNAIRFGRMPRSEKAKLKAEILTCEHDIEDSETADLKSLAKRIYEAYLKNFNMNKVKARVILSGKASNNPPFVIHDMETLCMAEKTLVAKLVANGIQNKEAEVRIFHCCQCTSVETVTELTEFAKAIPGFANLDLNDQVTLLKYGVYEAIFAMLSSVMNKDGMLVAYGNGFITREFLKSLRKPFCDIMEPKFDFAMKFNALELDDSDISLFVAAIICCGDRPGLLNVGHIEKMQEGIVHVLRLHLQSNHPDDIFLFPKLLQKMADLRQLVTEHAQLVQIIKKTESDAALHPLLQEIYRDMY
In words: Agonist activity at PPARalpha ligand binding domain expressed in HEK293 cells co-expressing GAL4 at 150 uM after 18 hrs by dual-luciferase activity based transactivation assay relative to control. In kind it is cell-based.

Assay [2] concerns the target T2, Peroxisome proliferator-activated receptor alpha (Homo sapiens, UniProt Q07869).
T2 sequence (Q07869 whole entry): T1 sequence (whole entry)
The experiment in a line: Agonist activity at PPARalpha ligand binding domain expressed in HEK293 cells co-expressing GAL4 after 18 hrs by dual-luciferase activity based transactivation assay. In kind it is cell-based.

In assay [3] the target is T2, Peroxisome proliferator-activated receptor alpha. The experiment in a line: (§1) Antagonist activity at PPARalpha ligand binding domain expressed in HEK293 cells co-expressing GAL4 assessed as inhibition of GW7647-induced transactivation activity after 18 hrs by dual-luciferase assay. It counts as cell-based.
For assay [4], the target named is T1, Peroxisome proliferator-activated receptor alpha (Homo sapiens). In words: Antagonist activity at PPARalpha in human HepG2 cells assessed as inhibition of CPT1A mRNA expression at 150 uM after 48 hrs by RT-PCR analysis relative to control. In kind it is functional, cell-based.
The target is the same in assay [5]. The experiment in a line: Antagonist activity at PPARalpha in human HepG2 cells assessed as inhibition of GW7647-induced CPT1A mRNA expression at 150 uM after 48 hrs by RT-PCR analysis relative to control. It counts as functional, cell-based.
For assay [6] the target is unchanged. The assay is described as §1. It counts as cell-based.
For assay [7] the target is unchanged. In words: Antagonist activity at PPARalpha ligand binding domain expressed in HEK293 cells co-expressing GAL4 assessed as inhibition of GW7647-induced transactivation activity at 50 uM after 18 hrs by dual-luciferase assay relative to control. In kind it is cell-based.
Assay [8] has the same target. In words: Antagonist activity at PPARalpha ligand binding domain expressed in HEK293 cells co-expressing GAL4 assessed as inhibition of GW7647-induced transactivation activity at 100 uM after 18 hrs by dual-luciferase assay relative to control. It counts as cell-based.
Assay [9] has the same target. The experiment in a line: Antagonist activity at PPARalpha in human HepG2 cells assessed as inhibition of GW7647-induced CPT1A mRNA expression at 0.2 uM after 48 hrs by RT-PCR analysis relative to control. In kind it is functional, cell-based.
For assay [10] the target is unchanged. The experiment in a line: Antagonist activity at PPARalpha ligand binding domain expressed in HEK293 cells co-expressing GAL4 assessed as inhibition of transactivation activity at 50 uM after 18 hrs by dual-luciferase assay relative to control. In kind it is cell-based.
Assay [11] has the same target. In words: Antagonist activity at PPARalpha ligand binding domain expressed in HEK293 cells co-expressing GAL4 assessed as inhibition of transactivation activity at 10 uM after 18 hrs by dual-luciferase assay relative to control. It counts as cell-based.
The target is the same in assay [12]. The experiment in a line: Antagonist activity at PPARalpha in human HepG2 cells assessed as inhibition of GW7647-induced CPT1A mRNA expression after 48 hrs by RT-PCR analysis relative to control. In kind it is functional, cell-based.
Assay [13] shares this target. The experiment in a line: Antagonist activity at PPARalpha in human HepG2 cells assessed as inhibition of GW7647-induced CPT1A mRNA expression at 2 uM after 48 hrs by RT-PCR analysis relative to control. It counts as functional, cell-based.
Assay [14] shares this target. The experiment in a line: Antagonist activity at PPARalpha ligand binding domain expressed in HEK293 cells co-expressing GAL4 assessed as inhibition of transactivation activity at 150 uM after 18 hrs by dual-luciferase assay relative to control. In kind it is cell-based.
Assay [15] has the same target. The experiment in a line: Antagonist activity at PPARalpha ligand binding domain expressed in HEK293 cells co-expressing GAL4 assessed as inhibition of GW7647-induced transactivation activity at 10 uM after 18 hrs by dual-luciferase assay relative to control. It counts as cell-based.
For assay [16] the target is unchanged. In words: Antagonist activity at PPARalpha ligand binding domain expressed in HEK293 cells co-expressing GAL4 assessed as inhibition of GW7647-induced transactivation activity at 1 uM after 18 hrs by dual-luciferase assay relative to control. In kind it is cell-based.
The target is the same in assay [17]. In words: Antagonist activity at PPARalpha in human HepG2 cells assessed as inhibition of GW7647-induced CPT1A mRNA expression at 20 uM after 48 hrs by RT-PCR analysis relative to control. In kind it is functional, cell-based.
For assay [18] the target is unchanged. The experiment in a line: Antagonist activity at PPARalpha ligand binding domain expressed in HEK293 cells co-expressing GAL4 assessed as inhibition of GW7647-induced transactivation activity at 150 uM after 18 hrs by dual-luciferase assay relative to control. In kind it is cell-based.
The target is the same in assay [19]. In words: Antagonist activity at PPARalpha ligand binding domain expressed in HEK293 cells co-expressing GAL4 assessed as inhibition of transactivation activity at 100 uM after 18 hrs by dual-luciferase assay relative to control. It counts as cell-based.
The target is the same in assay [20]. The experiment in a line: Antagonist activity at PPARalpha ligand binding domain expressed in HEK293 cells co-expressing GAL4 assessed as inhibition of transactivation activity at 1 uM after 18 hrs by dual-luciferase assay relative to control. In kind it is cell-based.

Take `CCOc1ccc2nc(SC(C)C(=O)NS(=O)(=O)c3ccccc3)sc2c1` (racemic): the fold change (FC) in assay [1] was 0.89.
With `CCCCCCC(Sc1nc2cc(Cl)ccc2s1)C(=O)NS(=O)(=O)c1ccccc1` (racemic), the response in assay [2] was half-maximal at 50.6 µM (EC50). Moreover, the fold change (FC) in assay [1] was 1.49.
On to `CCCC(Sc1nc2cc(Cl)ccc2s1)C(=O)NS(=O)(=O)c1ccccc1` (racemic), for which the IC50 in [3] came out at 22.2 µM. Also, the fold change (FC) in assay [4] is 0.248; in assay [1], 0.09; in assay [5], 0.235.
For the compound `O=C(NS(=O)(=O)c1ccccc1)C(Sc1nc2cc(Cl)ccc2s1)c1ccccc1` (racemic), in assay [3], the IC50 worked out at 6.5 µM. Further, the inhibition entry in assay [6] and in [12] was “Dose-dependent effect” throughout. The fold change (FC) in assay [7] is -0.63; in assay [8], -0.1; in assay [9], 3.59; in assay [10], -0.03; in [4], 0.005; in [11] it was -0.23. Also, the fold change (FC) is 0.01 in assay [1]; 2.36 in assay [13]; -0.01 in assay [14]; 2.14 in assay [15]; 3.8 in assay [16]; 1.68 in assay [17]. Further, the fold change (FC) in assay [5] is 0.005; in assay [18], -0.09; in assay [19], -0.03; in [20] it was -0.78.
For `CCCCC(Sc1nc2cc(Cl)ccc2s1)C(=O)NS(=O)(=O)c1ccccc1` (racemic), the IC50 in [3] turned out to be 19.9 µM. Besides, the fold change (FC) worked out at 0.005 in assay [4], 0.01 in assay [1] and 0.003 in [5].
Regarding `CC(C)(Oc1ccc(Cl)cc1)C(=O)O`, the fold change (FC) in assay [1] turned out to be 1.6.
In the case of `CC(C)C(Sc1nc2cc(Cl)ccc2s1)C(=O)NS(=O)(=O)c1ccccc1` (racemic), in [3], the concentration for half-maximal inhibition (IC50) stood at 27.9 µM. In addition, the fold change (FC) in [1] came out at 0.1.
For `CCCC(Sc1nc2ccc(OCC)cc2s1)C(=O)NS(=O)(=O)c1ccccc1` (racemic) the same measures were 31 µM and 0.05.
